The record followed here is patent US20250092065A1, “2-(INDAZOL-5-YL)-6-(PIPERIDIN-4-YL)-1,7-NAPHTHYRIDINE DERIVATIVES AND RELATED COMPOUNDS AS MODULATORS FOR SPLICING NUCLEIC ACIDS AND FOR THE TREATMENT OF PROLIFERATIVE DISEASES” (REMIX THERAPEUTICS INC., priority 2022, published 2025).

This assay relates to HTT mRNA. The assay can be described thus: RT-qPCR splicing assay, HTT mRNA canonical (CJ) and alternative (AJ) junction. The following applies: Homo sapiens; for AC50: HTT alternative junction mRNA, read-out: HTT AJ (increase in AJ mRNA, AC50). The format is cell-based, human. In outline: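 Splice switching quantified in compound-treated A673/K562 cells after 24 h exposure (top dose 10 uM, 3-fold steps, ≤0.25% DMSO), using CJ and AJ qPCR assays run at least in duplicate. RQ derived by 2^(−ΔΔCt), then percentage response.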
On the technique in general: In qPCR the cycle at which signal appears reflects the starting amount.

The mark [1] stands for this setting: HTT canonical junction mRNA, RT-qPCR, read-out: HTT CJ (decrease in CJ mRNA levels, IC50).
[2] abbreviates: canonical junction qPCR panel, Table 4, read-out: HTT IC50 (decrease in CJ mRNA levels).

Where a name gives a salt, the structure may show the parent alone. Read-outs that look alike come from different tables or passages of the source. A value given as a limit tells only on which side of the number the result lay.

Turning to `Cc1c(O)c(-c2nc(-c3c[nH]nn3)c3cc(N4CCNCC4)ccc3n2)cc2cn(C)nc12` [Compound 538, 2,7-dimethyl-5-[6-(piperazin-1-yl)-4-(1H-1,2,3-triazol-4-yl)quinazolin-2-yl]indazol-6-ol hydrochloride], the AC50 (RT-qPCR) was in the range of 1000 to 10000 nM. In addition, the IC50 under setting [1] was in the range of 1000 to 10000 nM and the IC50 under setting [2] was in the range of 1000 to 10000 nM.
`Cc1c(O)c(-c2nc(C(=O)NC(C)C)c3cc(N4C[C@@H](C)N[C@@H](C)C4)ccc3n2)cc2cn(C)nc12` [Compound 539, 6-[(3R,5S)-3,5-dimethylpiperazin-1-yl]-2-(6-hydroxy-2,7-dimethylindazol-5-yl)-N-isopropylquinazoline-4-carboxamide]: where the note is “RT-qPCR”, the AC50 was less than 100 nM. Further, the IC50 runs as follows: under setting [1], less than 100 nM; under setting [2], less than 100 nM.
Consider `Cc1c(O)c(-c2nc(C(=O)NC3CCC3)c3cc(N4C[C@@H](C)N[C@@H](C)C4)ccc3n2)cc2cn(C)nc12` [Compound 540], for which the AC50 (RT-qPCR) lay in the range of 100 to 1000 nM. For the same compound, the IC50 reads like this: under setting [1], 1000 to 10000 nM; under setting [2], 1000 to 10000 nM.
Take `Cc1c(O)c(-c2nc(-c3nn[nH]n3)c3cc(N4CCNCC4)ccc3n2)cc2cn(C)nc12` [Compound 541, 2,7-dimethyl-5-[6-(piperazin-1-yl)-4-(2H-1,2,3,4-tetrazol-5-yl)quinazolin-2-yl]indazol-6-ol]: under “RT-qPCR”, the AC50 is 1000 to 10000 nM. Moreover, the IC50 under setting [1] was in the range of 1000 to 10000 nM and the IC50 under setting [2] lay within 1000 to 10000 nM.
`C[C@@H]1CN(c2ccc3nc(-c4cc5cn(C)nc5c(F)c4O)nc(C4CC4)c3c2)C[C@H](C)N1` [Compound 542, 5-{4-cyclopropyl-6-[(3R,5S)-3,5-dimethylpiperazin-1-yl]quinazolin-2-yl}-7-fluoro-2-methylindazol-6-ol]: for the setting “RT-qPCR”, the AC50 is 1000 to 10000 nM. Further, the IC50 lay in the range of 1000 to 10000 nM under setting [1] and 1000 to 10000 nM under setting [2].
On to `CN[C@@H]1CCN(c2ccc3nc(-c4cc5cn(C)nc5c(F)c4O)nc(C4CC4)c3c2)C1` [Compound 543, 5-{4-cyclopropyl-6-[(3R)-3-(methylamino)pyrrolidin-1-yl]quinazolin-2-yl}-7-fluoro-2-methylindazol-6-ol], for which the AC50 (RT-qPCR) is less than 100 nM. Further, the IC50 was less than 100 nM under setting [1] and less than 100 nM under setting [2].
`Cc1cn2cc(-c3ccc4cc(N5C[C@@H](C)N[C@@H](C)C5)cc(F)c4n3)cc(F)c2n1` [Compound 544, 6-[(3R,5S)-3,5-dimethylpiperazin-1-yl]-8-fluoro-2-{8-fluoro-2-methylimidazo[1,2-a]pyridin-6-yl}quinoline]: the AC50 (RT-qPCR) is 100 to 1000 nM. Further, the IC50 lay within 100 to 1000 nM under setting [1] and 100 to 1000 nM under setting [2].
Regarding `CNC(=O)c1nc(-c2cc3cn(C)nc3c(C)c2O)nc2ccc(N3C[C@H](C)N[C@@H](C)C3)cc12` [Compound 652, 6-[(3S,5S)-3,5-dimethylpiperazin-1-yl]-2-(6-hydroxy-2,7-dimethylindazol-5-yl)-N-methylquinazoline-4-carboxamide], the AC50 (RT-qPCR) was 100 to 1000 nM. Further, the IC50 is 100 to 1000 nM under setting [1] and 100 to 1000 nM under setting [2].
For the compound `Cc1c(O)c(-c2ncc3cc(N4C[C@H](C)N[C@@H](C)C4)ccc3n2)cc2cn(C)nc12` [Compound 660, 5-{6-[(3S,5S)-3,5-dimethylpiperazin-1-yl]quinazolin-2-yl}-2,7-dimethylindazol-6-ol], the AC50 (RT-qPCR) lay within 100 to 1000 nM. Also, the IC50 under setting [1] lay within 100 to 1000 nM and the IC50 under setting [2] lay in the range of 100 to 1000 nM.
With `CNC(=O)c1nc(-c2cc3cn(C)nc3c(C)c2O)nc2ccc(N3CCC(N4CCC4)CC3)cc12` [Compound 706], for the setting “RT-qPCR”, the AC50 was 1000 to 10000 nM. For the same compound, the IC50 lay in the range of 100 to 1000 nM under setting [1] and 100 to 1000 nM under setting [2].
With `C[C@@H]1CN(c2ccc3nc(-c4cc5cn(C)nc5c(F)c4O)nc(C#N)c3c2)C[C@H](C)N1` [Compound 707, 6-[(3R,5S)-3,5-dimethylpiperazin-1-yl]-2-(7-fluoro-6-hydroxy-2-methylindazol-5-yl) quinazoline-4-carbonitrile], where the note is “RT-qPCR”, the AC50 was 100 to 1000 nM. Further, the IC50 by setting is: under setting [1], 100 to 1000 nM; under setting [2], 100 to 1000 nM.
`C[C@@H]1CN(c2ccc3nc(-c4cc5cn(C)nc5c(F)c4O)nc(C(N)=O)c3c2)C[C@H](C)N1` [Compound 712, 6-[(3R,5S)-3,5-dimethylpiperazin-1-yl]-2-(7-fluoro-6-hydroxy-2-methylindazol-5-yl) quinazoline-4-carboxamide]: for the setting “RT-qPCR”, the AC50 lay within 1000 to 10000 nM. Further, the IC50 was in the range of 1000 to 10000 nM under setting [1] and 1000 to 10000 nM under setting [2].
On to `CC(=O)c1nc(-c2cc3cn(C)nc3c(F)c2O)nc2ccc(N3C[C@@H](C)N[C@@H](C)C3)cc12` [Compound 717, 1-{6-[(3R,5S)-3,5-dimethylpiperazin-1-yl]-2-(7-fluoro-6-hydroxy-2-methylindazol-5-yl)quinazolin-4-yl}ethanone], for which the AC50 (RT-qPCR) was 100 to 1000 nM. Moreover, the IC50 is, setting by setting: under setting [1], 100 to 1000 nM; under setting [2], 100 to 1000 nM.
Regarding `CNC(=O)c1nc(-c2cc3cn(C)nc3c(F)c2O)nc2ccc(N3CCC(N4CCC4)CC3)cc12` [Compound 722, 6-[4-(azetidin-1-yl)piperidin-1-yl]-2-(7-fluoro-6-hydroxy-2-methylindazol-5-yl)-N-methylquinazoline-4-carboxamide], the AC50 (RT-qPCR) was in the range of 100 to 1000 nM. For the same compound, the IC50 is less than 100 nM under setting [1] and less than 100 nM under setting [2].
Take `Cc1cc(N2C[C@@H](C)N[C@@H](C)C2)cc2c(Cl)cc(-c3cc4cn(C)nc4c(F)c3O)nc12` [Compound 723, 5-{4-chloro-6-[(3R,5S)-3,5-dimethylpiperazin-1-yl]-8-methylquinolin-2-yl}-7-fluoro-2-methylindazol-6-ol]: the AC50 (RT-qPCR) lay in the range of 100 to 1000 nM. The half-maximal inhibitory concentration (IC50) is, setting by setting: under setting [1], less than 100 nM; under setting [2], less than 100 nM.
For `CNC(=O)c1nc(-c2cc3cn(C)nc3c(F)c2O)nc2ccc(N3CCNC4(CC4)C3)cc12` [Compound 728, 6-{4,7-diazaspiro[2.5]octan-7-yl}-2-(7-fluoro-6-hydroxy-2-methylindazol-5-yl)-N-methylquinazoline-4-carboxamide], the concentration at half-maximal activity (AC50) (RT-qPCR) was in the range of 100 to 1000 nM. Besides, the IC50 by setting is: under setting [1], 100 to 1000 nM; under setting [2], 100 to 1000 nM.
Consider `CNC(=O)c1nc(-c2cc3cn(C)nc3c(F)c2O)nc2ccc(N3CC[C@@H](NC)C3)cc12` [Compound 729, 2-(7-fluoro-6-hydroxy-2-methylindazol-5-yl)-N-methyl-6-[(3R)-3-(methylamino)pyrrolidin-1-yl]quinazoline-4-carboxamide], for which, under “RT-qPCR”, the AC50 is less than 100 nM. The IC50 reads like this: under setting [1], less than 100 nM; under setting [2], less than 100 nM.
As to `C[C@@H]1CN(c2ccc3nc(-c4cc5cn(C)nc5c(F)c4O)nc(-c4nccs4)c3c2)C[C@H](C)N1` [Compound 732, 5-{6-[(3R,5S)-3,5-dimethylpiperazin-1-yl]-4-(1,3-thiazol-2-yl)quinazolin-2-yl}-7-fluoro-2-methylindazol-6-ol], the AC50 (RT-qPCR) is more than 10000 nM. For the same compound, the IC50 is, setting by setting: under setting [1], more than 10000 nM; under setting [2], more than 10000 nM.
For the compound `C[C@@H]1CN(c2ccc3nc(-c4cc5cn(C)nc5c(F)c4O)nc(C(=O)NCCO)c3c2)C[C@H](C)N1` [Compound 737, 6-[(3R,5S)-3,5-dimethylpiperazin-1-yl]-2-(7-fluoro-6-hydroxy-2-methylindazol-5-yl)-N-(2-hydroxyethyl)quinazoline-4-carboxamide], under “RT-qPCR”, the AC50 was 1000 to 10000 nM. The concentration for half-maximal inhibition (IC50) runs as follows: under setting [1], 1000 to 10000 nM; under setting [2], 1000 to 10000 nM.

As usually defined, the AC50 is the concentration at which the activity in the assay is half-maximal. One may read the IC50 as the point on the concentration scale where inhibition reaches its midpoint.
